# From publication PMC12045974, “T cell toxicity induced by tigecycline binding to the mitochondrial ribosome” (Nature Communications, 2025)
# Values joined by “and” are separate entries in the source; they are usually repeats but may differ in a detail not shown here. Equal entries are not always repeated.
# Experiments:
# [1] = system: mitochondrial translation in CD4+ and CD8+ T cells; assay: Mito-FUNCAT-FACS assay of mitochondrial translation on activated T cells; assay type: cell-based, human; conditions: for mitochondrial translation (fold change relative to negative control): per PBMC donor
# Method: Thawed PBMCs were washed with RPMI ( + 10% FBS, 2.05 mM L-glutamine (Sigma), and 55 μM 2-ME (Gibco)) before resting at 37 °C (5% CO2) for 30 min. After counting, cells were resuspended in FACS buffer at a density of 5 × 10^7 cells/ml. T cells were isolated using EasySep™ Human T Cell Isolation Kit (Stemcell Technologies). Purified T cells were counted and 85,000 cells per well seeded onto 96-well U-bottom plates with/without Human T-Activator CD3/CD28 beads (Invitrogen) at a 1:2.8 cell:bead ratio and 10 ng/ml IL-2 (Proteintech) in RPMI-1640 ( + 10% FBS, 2.05 mM L-glutamine (Sigma), and 55 μM 2-ME (Gibco)) for 48 h. To assess mitochondrial translation, activated T cells were washed twice with methionine/cysteine/pyruvate-free DMEM and incubated in methionine-depletion medium (DMEM supplemented with 10% dialyzed FBS, 1× GlutaMAX, 1× sodium pyruvate, and 0.2 mM L-cystine) for 30 min at 37 °C. To inhibit cytosolic translation, anisomycin (100 μg/mL) was added to the medium. For mitochondrial translation inhibition, 100 µg/mL chloramphenicol (309 μM, positive control) or tigecycline (2.5−10 μM) were added to the medium. Cells were then labeled with 50 μM L-homopropargylglycine (HPG) for 3 h at 37 °C, during which time the medium still contained antibiotics.
# Following HPG labeling, cells were collected and stained with surface markers (CD4, CD8). Cells were pre-permeabilized with 0.005% digitonin in mitochondria-protective buffer (10 mM HEPES/KOH, 10 mM NaCl, 5 mM MgCl2, 300 mM sucrose, pH 7.5) for 3 min, fixed with 4% paraformaldehyde for 10 min, and fully permeabilized with 0.25% Triton X-100 for 5 min. After blocking with 5% BSA for 10 min, incorporated HPG was detected via copper-catalyzed cycloaddition using 0.05 μM Alexa Fluor 488 picolyl azide (Click-iT™ Plus Alexa Fluor™ 488 Picolyl Azide Toolkit, Gibco) for 30 min at room temperature. Subsequently, the reaction cocktail was removed and cells resuspended in FACS buffer. Flow cytometry was carried out on a BD Celesta (BD Biosciences) and analyzed in FlowJo (TreeStar). Data are presented as fold change relative to negative controls.
# [2] = system: CD4+ T cell subsets (Tn, Tcm, Tem); assay: Proliferation of FACS-isolated naive, central memory and effector memory CD4+ T cells; assay type: cell-based, human
# Method: Thawed PBMCs were washed with RPMI complemented with 10% FBS, 2.05 mM L-glutamine (Sigma), and 55 μM 2-ME (Gibco) before resting at 37 °C (5% CO2) for 30 min. After counting, cells were resuspended in FACS buffer at a density of 5 × 10^7 cells/ml. CD4^+ T cells were isolated using CD4^+ T cell negative isolation kits (Miltenyi Biotech) and enriched using CD4^+ T cell Enrichment kits (Miltenyi Biotech). Purified CD4^+ T cells were counted and stained with CTV dye and live/dead dye. Subsequently, surface makers were stained at 4 °C in FACS buffer (DPBS + 2% FBS). The following panels were used to classify human T CD4^+ cells from the live lymphocyte gate: naïve CD4^+ T cells: Aqua^-CD4^+CD45RA^+CD27^+; central memory CD4^+ T cells: Aqua^-CD4^+CD45RA^-CD27^+, effector memory CD4^+ T cells: Aqua^-CD4^+CD45RA^-CD27^-. After staining, cells were washed, resuspended and sorted using a FACSAria Fusion (BD Biosciences). Sorted cells were collected into PBS complemented with 2% FBS at 4 °C. Cells were then harvested via centrifugation and resuspended in RPMI-1640 ( + 10% FBS, 2.05 mM L-glutamine (Sigma), and 55 μM 2-ME (Gibco) before counting. Sorted CD4^+ subsets were counted and 85,000 cells per well seeded onto 96-well U-bottom plates with/without Human T-Activator CD3/CD28 beads (Invitrogen) at a 1:2.8 cell:bead ratio and 10 ng/ml IL-2 (Proteintech) in RPMI-1640 ( + 10% FBS, 2.05 mM L-glutamine (Sigma), and 55 μM 2-ME (Gibco). At the same time, tigecycline in serial concentrations (from 2.5 to 10 μM) was added. A half medium change took place after 3 days, and cells were harvested after 6 days for flow cytometry. Antibodies used in the study are presented in Supplementary Table 2.
structure (smiles),measurement,setting,value
"CN(C)c1cc(NC(=O)CNC(C)(C)C)c(O)c2c1C[C@H]1C[C@H]3[C@H](N(C)C)C(O)=C(C(N)=O)C(=O)[C@@]3(O)C(O)=C1C2=O [Tigecycline, tigecycline]",mitochondrial translation (fold change relative to negative control),"[1]; CD4, 2.5µM",0.947 and 0.7157 and 0.7389
same,mitochondrial translation (fold change relative to negative control),"[1]; CD4, 5µM",0.8077 and 0.645 and 0.697
same,mitochondrial translation (fold change relative to negative control),"[1]; CD4, 10µM",0.7443 and 0.3992 and 0.6483 and 0.5621
same,mitochondrial translation (fold change relative to negative control),"[1]; CD8, 2.5µM",0.9388 and 0.7432 and 0.8324
same,mitochondrial translation (fold change relative to negative control),"[1]; CD8, 5µM",0.8134 and 0.656 and 0.7756
same,mitochondrial translation (fold change relative to negative control),"[1]; CD8, 10µM",0.7567 and 0.4193 and 0.7571 and 0.5029
same,inhibition of mitochondrial translation,"[1]; TCR-stimulated CD4+ and CD8+ T cells, 2.5-10 μM",dose-dependent inhibition of mitochondrial translation
same,"proliferation of naive, central memory and effector memory CD4+ T cells","[2]; 10 μM, 6 days",significantly inhibited the proliferation of all subsets
same,% Cells in each division,"[2]; Naïve, 2.5μM, division number 0",4.49% and 2.85% and 0.99%
same,% Cells in each division,"[2]; Naïve, 2.5μM, division number 2",44.1% and 38.6% and 39.3%
same,% Cells in each division,"[2]; Naïve, 2.5μM, division number 5",0.076% and 0.28% and 0.23%
same,% Cells in each division,"[2]; Naïve, 2.5μM, division number 6",0.17% and 0.1% and 0.16%
same,% Cells in each division,"[2]; Naïve, 2.5μM, division number 7",0.25% and 0.12%
same,% Cells in each division,"[2]; Naïve, 5μM, division number 0",3.52% and 9.14% and 5.5%
same,% Cells in each division,"[2]; Naïve, 5μM, division number 1",30.8% and 43.7% and 27.9%
same,% Cells in each division,"[2]; Naïve, 5μM, division number 2",51%
same,% Cells in each division,"[2]; Naïve, 5μM, division number 5",0.058% and 0.021% and 0.055%
same,% Cells in each division,"[2]; Naïve, 5μM, division number 6",0.28% and 0.21% and 0.25%
same,% Cells in each division,"[2]; Naïve, 5μM, division number 7",0.45% and 0.34% and 0.31%
same,% Cells in each division,"[2]; Naïve, 10μM, division number 0",20.7% and 12.2% and 12.7%
same,% Cells in each division,"[2]; Naïve, 10μM, division number 1",58.7% and 45.6% and 58.3%
same,% Cells in each division,"[2]; Naïve, 10μM, division number 2",19.7% and 37.8% and 26.9%
same,% Cells in each division,"[2]; Naïve, 10μM, division number 5",0% and 0.056% and 0.037%
same,% Cells in each division,"[2]; Naïve, 10μM, division number 6",0.22% and 0.27% and 0.31%
same,% Cells in each division,"[2]; Naïve, 10μM, division number 7",0.47% and 0.48% and 0.72%
same,% Cells in each division,"[2]; TCM, 2.5μM, division number 0",11.5% and 6.18% and 6.94%
same,% Cells in each division,"[2]; TCM, 2.5μM, division number 1",38% and 27.5% and 31.5%
same,% Cells in each division,"[2]; TCM, 2.5μM, division number 2",33.5% and 37.9% and 38.1%
same,% Cells in each division,"[2]; TCM, 2.5μM, division number 5",0.31% and 0.62% and 0.44%
same,% Cells in each division,"[2]; TCM, 2.5μM, division number 6",0.5% and 0.64% and 0.43%
same,% Cells in each division,"[2]; TCM, 2.5μM, division number 7",0.62% and 0.7%
same,% Cells in each division,"[2]; TCM, 5μM, division number 0",31.4% and 19.3% and 18.6%
same,% Cells in each division,"[2]; TCM, 5μM, division number 1",46.4% and 46.1% and 47.3%
same,% Cells in each division,"[2]; TCM, 5μM, division number 2",17% and 26.2% and 27.6%
same,% Cells in each division,"[2]; TCM, 5μM, division number 5",0.095% and 0.16% and 0.1%
same,% Cells in each division,"[2]; TCM, 5μM, division number 6",0.58% and 0.85% and 0.47%
same,% Cells in each division,"[2]; TCM, 5μM, division number 7",1.11% and 1.15% and 0.74%
same,% Cells in each division,"[2]; TCM, 10μM, division number 0",51.5% and 35.3% and 35.1%
same,% Cells in each division,"[2]; TCM, 10μM, division number 1",39.1% and 48.8% and 52.5%
same,% Cells in each division,"[2]; TCM, 10μM, division number 2",6.84% and 12.8% and 10.7%
same,% Cells in each division,"[2]; TCM, 10μM, division number 5",0.11% and 0.14% and 0.05%
same,% Cells in each division,"[2]; TCM, 10μM, division number 6",0.69% and 0.83% and 0.56%
same,% Cells in each division,"[2]; TCM, 10μM, division number 7",1.26% and 0.83%
